This is an account of results in publication PMC10813319 (Biomedicines, 2024).

Read-outs that look alike come from different tables or passages of the source. Square brackets hold non-standard residues; d marks the D form. Peptide text beside a SMILES is read from it. A value given as a limit tells only on which side of the number the result lay.

For experiment [1], the system named is pre-formed Aβd/t-induced cofilin-mRFP rods in E18 rat neurons.
Experiment [2] concerns Aβd/t-induced cofilactin rods in Day 55 human iPSC-derived glutamatergic neurons. Briefly: cells. The settings on record: Neuron, read-out: EC50 for inhibition of Aβd/t-induced rods, human neurons.
Experimental: (§1) The predominantly dimer/trimer fraction of a secreted human amyloid-β (Aβd/t) was derived from a Chinese hamster ovary-cell line (7PA2) [62]. Medium from these cells collected after overnight incubation was concentrated 10-fold on Amicon Ultra 15 mL, 3K cut-off spin filters (Sigma-Aldrich), and the concentrate fractionated on a Superdex-75 Increase (Sigma-Aldrich) gel filtration column equilibrated in 50 mM ammonium acetate buffer [20, 24]. The fractions containing Aβd/t were identified by Western blots using an Aβ antibody (6E10; 1:1000) (Covance, Princeton, NJ, USA). Fractions were freeze-dried, resolubilized in 1 mL of sterile water, and freeze-dried a second time for storage. The Aβd/t fraction was reconstituted to 1X (concentration in 7PA2 culture medium, assuming full recovery of the dimer/trimer fraction) in neuronal culture medium prior to addition to neuronal cultures. Quantification of the total Aβd/t pool was determined to be about 1 nM (monomer equivalent) by comparison on immunoblots to a standard curve using synthetic Aβ [20].
(§2) Human neurons were derived from iPSC WTC-11 cells, in which a doxycycline-regulated promoter drives the expression of the Ngn2 transcription factor for glutamatergic neuronal differentiation [67, 68]. […] Differentiated neurons were plated at 60,000 per well and cultured for 55 days in glial-conditioned complete homemade neurobasal medium (hNB) either on poly-D-lysine/Matrigel (Corning Life Sciences, Tewksbury, MA, USA) coated glass bottom 24-well plates (Cellvis, Mountain View, CA, USA) or on similarly coated 12 mm German glass coverslips placed in plastic 24-well plates.
(§3) Cultured neurons were exposed to inhibitors and/or Aβd/t for 20–24 h prior to fixation for 30 min with 4% formaldehyde ± 0.1% glutaraldehyde in cytoskeletal buffer [72], washed 3 times with PBS, and permeabilized with −20 °C methanol (3 min while warming to RT). Methanol permeabilization without the use of non-ionic detergents is critical for optimal observation of rods [13]. After removing the methanol, neurons were washed twice in PBS, twice in Tris Buffered Saline (TBS: 10 mM Tris, pH 7.5, 150 mM NaCl), and incubated for 1 h at RT with blocking buffer (2–5% goat or donkey serum, 1% bovine serum albumin (BSA) in TBS). Primary antibodies (rabbit 1439 anti-cofilin, mouse anti-neurofilament, and chicken anti-MAP2) were diluted in 1% BSA in TBS and incubated overnight on cells at 4 °C. After 3–5 washes with TBS, secondary fluorescent-labeled antibodies (goat anti-rabbit Alexa 488 or 647, goat anti-mouse Alexa 564, or goat anti-chicken Alexa 488 or 564) ± DAPI (1:500 of 1 mg/mL) were added for 1 h at RT in 1% BSA/TBS. After 3–5 TBS washes, coverslips were mounted onto glass slides with Prolong Diamond Antifade ± DAPI (Thermo-Fisher) and air dried overnight in the dark.
(§4) Stitched images of fixed neurons immunolabeled for cofilin and nuclei (DAPI), as well as either NF-H or MAP2, were exported as tiff files to Metamorph (version 7.8, Molecular Devices, San Jose, CA, USA) or ImageJ (Version 1.53e; Java 1.8.0_172; ImageJ.org). In some cases, macro functions were applied to set local thresholds and shape/size segmentation for cofilin rods.
The subject of experiment [3] is pre-formed Aβd/t-induced cofilactin rods in Day 55 human neurons. The settings on record: AMD3100 30 nM for 24 h in the continued presence of Aβd/t; cited from earlier work.
Experiment [4] has as its system Aβd/t-induced cofilactin rods in Day 55 human iPSC-derived glutamatergic neurons.
Experimental: as §1, §2, §3, §4
Experiment [5] relates to IL-6-induced cofilactin rods in Day 55 human neurons.
The test system of experiment [6] is dual tropic gp120MN-induced cofilactin rods in Day 55 human neurons.
Experiment [7] deals with pre-formed Aβd/t-induced cofilactin rods in Day 55 human neurons.
For experiment [8], the system named is glutamate-induced cofilactin rods in 6 DIV rat hippocampal neurons.
The subject of experiment [9] is Aβd/t-induced cofilactin rods in 6 DIV rat hippocampal neurons.
The mark [10] stands for this setting: read-out: Human Neuron EC50, inhibition of Aβd/t-induced rods, Day 55 human neurons treated 24 h with Aβd/t plus peptide, Table 1.

Take `c1cc(CN2CCCNCCNCCCNCC2)ccc1CN1CCCNCCNCCCNCC1` [AMD3100]: the “Reversal of rods induced by and in the continued presence of Aβd/t” value in [1] (AMD3100 50 nM, RAP-103 0.1 nM, live imaging over 2.5 h, n = 3) is “reversed rods”. In [2], the EC50 was 2 to 3 nM. Besides, the “Reversal of Aβd/t-induced rods in human neurons” value in [3] is reported as “reversed”.

`C[C@H](O)[C@@H](NC(=O)[C@@H](CO)NC(=O)[C@H](N)CO)C(=O)N[C@H](Cc1ccc(O)cc1)C(=O)N[C@H](CCCNC(=N)N)C(=O)O` [Peptide 2] (H-[dS][dS][dT][dY][dR]-OH; N-terminus and C-terminus assumed): the EC50 in [4] (setting [10]) was ~1 nM.

For the compound `C[C@H](O)[C@@H](NC(=O)[C@@H](Cc1ccc(O)cc1)NC(=O)[C@@H](CC(N)=O)NC(=O)[C@H](NC(=O)[C@H](N)CO)[C@H](C)O)C(=O)O` [Peptide 3] (H-[dS][dT][dN][dY][dT]-OH), the EC50 in [4] (setting [10]) was ~1.5 nM.

For the compound `CN[C@@H](C(=O)N[C@@H](C(=O)N[C@H](CC(N)=O)C(=O)N[C@H](Cc1ccc(O)cc1)C(=O)N[C@@H](C(=O)O)[C@H](C)O)[C@H](C)O)[C@H](C)O` [Peptide 6], the EC50 in experiment [4] (setting [10]) is > 1 nM.

`C[C@H](O)[C@@H](N)C(=O)N[C@@H](C(=O)N[C@H](CC(N)=O)C(=O)N[C@H](Cc1ccc(O)cc1)C(=O)N[C@@H](C(=O)O)[C@H](C)O)[C@H](C)O` [RAP-103]: in [5], the EC50 is ~0.0001 nM. For the same compound, in experiment [6], the “Inhibition of gp120MN-induced rod formation” value is given as “completely inhibited”. The “Time to 50% rod reversal in human neurons” value in experiment [7] is ~ 3 h. Further, in experiment [1], the “Adjusted time of 50% loss of rod area” value was “about 200 min”; the “Extrapolated time to 50% decrease in rod size” value is given as ~ 3 h; the “Rate of rod reversal relative to AMD3100” value came to 2 fold; the “Reversal of rods induced by and in the continued presence of Aβd/t” value is “reversed rods”.

As to `C[C@H](O)[C@@H](NC(=O)[C@@H](Cc1ccc(O)cc1)NC(=O)[C@@H](CC(N)=O)NC(=O)[C@H](NC(=O)[C@H](NC(=O)[C@H](NC(=O)[C@@H](CO)NC(=O)[C@@H](C)N)[C@H](C)O)[C@H](C)O)[C@H](C)O)C(N)=O` [RAP-310], the “Inhibition of glutamate-induced rods” value in [8] is “did not inhibit”. For the same compound, the “Inhibition of Aβd/t-induced rods, rat neurons” value in experiment [9] is “fully inhibited”.

In the case of Maraviroc [reference compound], the EC50 in [4] (read-out: EC50 for inhibition of Aβd/t-induced rods, human neurons, Day 55 human iPSC-derived neurons, <1 nM to 100 nM, approximate, estimated from semi-log plots (Figure S2C,D), n = 2) is 8 to 9 nM.
